The experiment deals with T1, M1 muscarinic acetylcholine receptor (M1 mAChR) (Homo sapiens, UniProt P11229).
T1 sequence (P11229 1-460): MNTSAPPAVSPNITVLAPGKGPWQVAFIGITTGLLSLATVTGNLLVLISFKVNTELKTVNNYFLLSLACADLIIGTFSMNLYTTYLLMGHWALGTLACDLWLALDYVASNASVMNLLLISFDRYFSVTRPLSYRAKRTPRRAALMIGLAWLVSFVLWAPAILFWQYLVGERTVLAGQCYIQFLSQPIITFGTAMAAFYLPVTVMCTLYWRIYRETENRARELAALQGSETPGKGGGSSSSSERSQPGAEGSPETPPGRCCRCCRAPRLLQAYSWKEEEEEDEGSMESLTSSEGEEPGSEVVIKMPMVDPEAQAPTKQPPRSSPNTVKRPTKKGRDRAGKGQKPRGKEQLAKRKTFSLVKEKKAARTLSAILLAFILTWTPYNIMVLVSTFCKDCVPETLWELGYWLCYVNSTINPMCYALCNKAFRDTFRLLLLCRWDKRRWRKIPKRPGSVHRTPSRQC
Briefly: intracellular calcium mobilization in M1-CHO cells. The experiment is classed as cell-based.

One may read the EC50 as the midpoint of the concentration-response curve. As for `CCCCC1CCN(CCCN2C(=O)COc3cc(F)ccc32)CC1` [AC260584], the EC50 worked out at 146 nM.

(Values after article PMC2936488 (ACS chemical neuroscience, 2010).)
